Source: patent publication US20250243172A1, “NLRP3 INFLAMMASOME INHIBITORS AND COMPOSITIONS AND USES THEREOF” (VIRGINIA COMMONWEALTH UNIVERSITY, priority 2022, published 2025)

Target: human recombinant NLRP3 protein
Assay: Binding of NSIs to recombinant NLRP3 protein by microscale thermophoresis (Monolith NT.Automated)
Conditions: MST; His-NLRP3 labeled with RED-tris-NTA dye, 40 min incubation in PBS-T; duplicate reads
Experimental: Monolith NT. Automated instrument was used to measure the Kd value. A range of concentrations of NSIs were incubated and His-NLRP3 pre-labeled with RED-tris-NTA dye kit (SKU: MO-L018) for 40 min in PBS-T assay buffer (1×PBS with 0.05% Tween® 20). The samples were loaded into NanoTemper® glass capillaries and series of ligand-induced changes in thermophoresis curves were gained using an Excitation power of 80% and a MST power of high. Kd values were calculated using the mass action equation with NanoTemper software from duplicate reads of an experiment.
Table 1 provides exemplary binding affinities of NSIs to human recombinant NLRP3 protein.

| Kd | Compound |
| --- | --- |
| 3 µM | COc1ccc(Cl)cc1Cn1cc(-c2ccc(C(=O)N3CCC3)cc2)nn1 [YM-III-11] |
| 0.98 µM | COc1ccc(Cl)cc1Cn1cc(C(=O)N2CC(F)(F)C2)nn1 [YM-III-12] |
